Test results as given in patent publication US11560365B2, “Non-fluorescent rhodamines” (THE UNIVERSITY OF TOKYO, priority 2018, dated 2023).
Values belong to the compound of their own block, whether it stands above or below them.

Experiments:
[1] = Optical properties: relative fluorescence quantum yield with reference to Rhodamine B; type: physicochemical; settings: for fluorescence quantum yield (Φfl): relative to Rhodamine B
Description: The optical properties of the compound synthesized in the above Synthesis Examples were evaluated. The results are illustrated in FIG. 4.
(§1) (a to c) of FIG. 4 illustrate chemical structures of tetramethylrhodamine (TMR) (a), 4-Cl TMR (b) and 4,5-diCl TMR (c), the fluorescence quantum yields (Φf1) in MeOH containing 0.1% TFA, absorption maximum (λabs) and emission maximum (λem). Φf1 is a relative fluorescence quantum yield determined with reference to Rhodamine B (Φf1=0.65) of EtOH.
(d to f) of FIG. 4 illustrates absorption spectra and emission spectra of 1 μM TMR (d), 4-Cl TMR (e) and 4,5-diCl TMR (f) in MeOH containing 0.1% TFA and 0.1% DMSO.
as §1, with “6” for “4”, “2-Cl TMR” for “tetramethylrhodamine (TMR)”, “2-Me” for “4-Cl”, “2-F” for “4,5-diCl”, “(Oni)” for “(Φf1)”
(d to f) of FIG. 6 illustrates the absorption spectra and the emission spectra of 1 μM 2-Cl TMR (a), 2-Me TMR (b) and 2-F TMR (c) in MeOH containing 0.1% TFA and 0.1% DMSO.
(a) of FIG. 7 illustrates Φf1, λabs and λem of 2-Cl triMe rhodamine in MeOH containing 0.1% TFA. (b) of FIG. 7 illustrates the absorption spectrum and the emission spectrum of 1 μM 2-Cl triMe rhodamine in MeOH containing 0.1% TFA.

[2] = Solvent viscosity dependence of the fluorescence quantum yield; type: physicochemical
Description: Next, in order to examine whether the non-fluorescence of the newly developed non-fluorescent rhodamine was due to the production of the TICT state, solvent viscosity dependence of the fluorescence quantum yield was examined. Specifically, the absorption, fluorescence spectrum and fluorescence quantum yield were measured in three types of solvents including MeOH (εr=32.6, η=0.61 cP), ethylene glycol (εr=38.7, η=19.9 cP) and glycerol (εr=42.5, η=1412 cP). […] It was expected that if the formation of the TICT state was promoted by the steric hindrance due to the introduction of the substituent, while quenching was performed by the formation of the TICT state in MeOH, in a highly viscous solvent such as glycerol, a rate of intramolecular twist became slow, and the transition to the TICT state was suppressed, so that the fluorescence quantum yield would increase.
(a) of FIG. 5 is Φf1 of 4-Cl TMR in glycerol, ethylene glycol and MeOH. Φf1 is a relative fluorescence quantum yield determined with reference to Rhodamine B (Φf1=0.65) of EtOH. (b and c) of FIG. 5 illustrate the absorption spectrum (b) and the emission spectrum (c) of 1 μM 4-Cl TMR in glycerol, ethylene glycol and MeOH.

CYP3A = settings: literature statement; cited from earlier work
CYP1A2 = target: T1, CYP1A2 (Homo sapiens, UniProt P05177); settings: literature (Stresser et al. 2002); cited from earlier work
T1 sequence (P05177 1-516): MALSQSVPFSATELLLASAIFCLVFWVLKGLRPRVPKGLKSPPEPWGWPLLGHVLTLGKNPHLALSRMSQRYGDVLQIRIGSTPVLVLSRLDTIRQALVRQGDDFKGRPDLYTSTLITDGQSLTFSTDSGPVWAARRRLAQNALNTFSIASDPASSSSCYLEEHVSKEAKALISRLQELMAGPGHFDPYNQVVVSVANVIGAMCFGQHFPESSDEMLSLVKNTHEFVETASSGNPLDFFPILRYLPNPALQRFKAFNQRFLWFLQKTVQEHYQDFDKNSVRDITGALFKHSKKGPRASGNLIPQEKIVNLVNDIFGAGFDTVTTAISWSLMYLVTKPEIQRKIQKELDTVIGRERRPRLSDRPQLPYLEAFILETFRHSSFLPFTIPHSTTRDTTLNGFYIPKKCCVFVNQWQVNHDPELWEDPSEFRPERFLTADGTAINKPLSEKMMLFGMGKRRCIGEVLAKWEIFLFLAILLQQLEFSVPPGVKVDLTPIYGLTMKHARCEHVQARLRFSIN

CYP3A4 = CYP3A4 (Homo sapiens, UniProt P08684); test: Absorption/fluorescence spectrum changes on reaction with CYP3A4; type: biochemical; settings: 1 μM compound, CYP3A4 10 nM
From the text: Next, as a representative of the compounds illustrated in FIG. 15, absorption/fluorescence spectrum changes when Compound 29 (illustrated below) was reacted with CYP3A4 were shown (FIG. 16).

[3] = tested on: CYP3A in human liver microsomes; test: Time-dependent fluorescence change with human liver microsomes and NADPH producing system
Description: The human liver microsomes and the NADPH producing system were pre-incubated with 0.1% DMSO or 10 μM ketoconazole for 30 minutes before addition of Compound 29, and the measurement was started immediately after addition of Compound 29.

CYP3A activity of HepaRG = test: Fluorescence imaging of CYP3A activity in living HepaRG cells; type: cell-based; settings: 1 μM compound, 37° C. 30 minutes; control and rifampicin groups versus ketoconazole group
Description: HepaRG (registered trademark) frozen vial 8M (HPR116-8M) purchased from KAC Co., Ltd. was thawed and inoculated according to the manufacturer's protocol, and cultured for 6 days in an 8-well chamber (Matsunami: SCC-038 collagen coat). Then, it was examined whether Compound 29 could detect the CYP3A activity of HepaRG.
Imaging was performed on three types of control group, inhibitor-added group, and derivative-added group.
Ketoconazole was used as an inhibitor. Rifampicin was used as an inducer of the CYP3A activity. […]
Here, FIG. 18 illustrates a fluorescence image (control) of HepaRG obtained when HepaRG to which 0.1% DMSO was added for 3 days was pretreated with 0.1% DMSO for 30 minutes, then 1 μM of Compound 29 was added, and the mixture was incubated at 37° C. for 30 minutes, a fluorescence image (+ inhibitor) of HepaRG obtained when 0.1% DMSO was added for 3 days and pretreated with 1 μM ketoconazole for 30 minutes before imaging, then Compound 29 was added, and the mixture was incubated at 37° C. for 30 minutes, and a fluorescence image obtained when 20 μM rifampicin were added for 3 days and was pretreated with 0.1% DMSO for 30 minutes, then Compound 29 was added, and the mixture was further incubated at 37° C. for 30 minutes. […]

[4] = in EtOH; cited from earlier work

Chain of CYP3A4 (P08684 whole entry): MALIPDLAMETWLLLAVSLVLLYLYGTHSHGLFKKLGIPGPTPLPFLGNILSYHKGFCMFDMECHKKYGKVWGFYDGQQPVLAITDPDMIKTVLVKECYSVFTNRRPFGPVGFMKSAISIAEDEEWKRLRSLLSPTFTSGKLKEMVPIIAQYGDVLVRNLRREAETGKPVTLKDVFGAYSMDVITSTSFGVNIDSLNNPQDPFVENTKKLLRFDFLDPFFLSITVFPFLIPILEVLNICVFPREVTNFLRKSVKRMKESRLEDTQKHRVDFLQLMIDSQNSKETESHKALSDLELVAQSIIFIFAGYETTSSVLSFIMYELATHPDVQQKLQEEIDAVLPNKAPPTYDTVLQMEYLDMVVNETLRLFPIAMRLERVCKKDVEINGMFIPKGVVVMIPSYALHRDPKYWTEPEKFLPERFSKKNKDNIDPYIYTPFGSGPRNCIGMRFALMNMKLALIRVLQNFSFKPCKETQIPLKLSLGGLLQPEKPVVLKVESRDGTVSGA

- fluorescence behaviour (in words) ([1]; MeOH containing 0.1% TFA): exhibited non-fluorescence
SMILES: CN(C)c1ccc2c(-c3ccccc3C(=O)O)c3cc(Cl)c(=[N+](C)C)cc-3oc2c1 [2-Cl TMR, 2-ClTMR]

- fluorescence quantum yield ([1]; MeOH containing 0.1% TFA): 15%
SMILES: C/N=c1\cc2oc3cc(N(C)C)ccc3c(-c3ccccc3C(=O)O)c-2cc1Cl [2-Cl triMe rhodamine]

- fluorescence quantum yield ([1]; MeOH containing 0.1% TFA): about 10%
SMILES: CN(C)c1ccc2c(-c3ccccc3C(=O)O)c3cc(F)c(=[N+](C)C)cc-3oc2c1 [2-F TMR, 2-FTMR]

- fluorescence quantum yield ([1]; MeOH containing 0.1% TFA): about 1%
SMILES: Cc1cc2c(-c3ccccc3C(=O)O)c3ccc(N(C)C)cc3oc-2cc1=[N+](C)C [2-Me TMR, 2-MeTMR]

- fluorescence quantum yield (Φfl) ([1]; MeOH containing 0.1% TFA): 0.001
SMILES: Cc1ccccc1-c1c2ccc(=[N+](C)C)c(Cl)c-2oc2c(Cl)c(N(C)C)ccc12 [4,5-diCl TMR, 4,5-diClTMR]

SMILES: COc1cccc(OC)c1C1=C2C=CC(=[N+](C)C)C(Cl)=C2[Si](C)(C)c2c1ccc(N(C)C)c2Cl [4,5-diCl TMSiR]
- fluorescence quantum yield ([1]; Si-rhodamines, Example 5): ≤ 0.1%

- fluorescence quantum yield (Φfl) ([1]; MeOH containing 0.1% TFA): 0.003
- fluorescence quantum yield (Φfl) ([2]; MeOH (η=0.61 cP)): 0.003
- fluorescence quantum yield (Φfl) ([2]; ethylene glycol (η=19.9 cP)): 0.01
- fluorescence quantum yield (Φfl) ([2]; glycerol (η=1412 cP)): 0.09
SMILES: Cc1ccccc1-c1c2ccc(=[N+](C)C)c(Cl)c-2oc2cc(N(C)C)ccc12 [4-Cl TMR, 4-ClTMR]

SMILES: Cc1ccccc1C1=C2C=CC(=[N+](C)C)C(Cl)=C2[Si](C)(C)c2cc(N(C)C)ccc21 [4-Cl TMSiR]
- fluorescence quantum yield ([1]; Si-rhodamines, Example 5): 1%

SMILES: O=c1cc(C(F)(F)F)c2ccc(OCc3ccccc3)cc2o1 [BFC, 7-benzyloxy-4-trifluoromethylcoumarin]
- metabolism by CYP3A (CYP3A): metabolized by CYP3A
- metabolism by CYP1A2 (CYP1A2): metabolized to some extent by CYP1A2

SMILES: c1ccc(COc2ccc3cccnc3c2)cc1 [BQ, 7-benzyloxyquinoline]
- metabolism by CYP3A (CYP3A): metabolized by CYP3A
- metabolism by CYP1A2 (CYP1A2): metabolized to some extent by CYP1A2

- change of absorption on reaction with CYP3A4 (CYP3A4; pH 7.4): Shortening the absorption wavelength
- fluorescence change on reaction with human liver microsomes ([3]; pH 7.4): showed the increase in fluorescence
SMILES: CCCCCOCC/[N+](C)=c1/cc2oc3cc(N(C)C)ccc3c(-c3ccccc3C(=O)O)c-2cc1C [Compound 29]
- change of fluorescence intensity on reaction with CYP3A4 (CYP3A4; pH 7.4, excitation 520 nm): significant increase in fluorescence intensity
- detection of CYP3A activity in living cells by fluorescence (CYP3A activity of HepaRG): could detect the CYP3A activity even in living cells

SMILES: CCN(CC)c1ccc2c(-c3ccccc3C(=O)O)c3ccc(=[N+](CC)CC)cc-3oc2c1.[Cl-] [Rhodamine B]
- fluorescence quantum yield (Φfl) of the reference [4]: 0.65

SMILES: CC(=O)N1CCN(c2ccc(OCC3COC(Cn4ccnc4)(c4ccc(Cl)cc4Cl)O3)cc2)CC1 (stereo not shown) [ketoconazole, reference compound]
- effect of inhibitor on the fluorescence increase of Compound 29 in human liver microsomes ([3]; 10 μM ketoconazole pre-incubated 30 minutes): suppressed

- fluorescence quantum yield (Φfl) ([1]; MeOH containing 0.1% TFA): 0.399
SMILES: Cc1ccccc1-c1c2ccc(=[N+](C)C)cc-2oc2cc(N(C)C)ccc12 [reference compound]
